# In PubChem BioAssay (NCI):
#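 1) Cells in 96-well plates. 2) Compound, 48 h, 5 concentrations. 3) Linear interpolation between surrounding doses. 4) Unreached endpoint = highest concentration. Definition used: TGI = concentration required for complete inhibition of growth.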 Where a SMILES comes first, the peptide text is derived from it. The star is where a group is joined. Boc = CC(C)(C)OC(=O)*
# How the values were obtained:
# Assay in all cases: growth of human tumour cells (NCI), 48 h
# RPMI-8226 leukemia = tested on: RPMI-8226 leukemia
# EKVX NSCLC = tested on: EKVX NSCLC
# CAKI-1 renal = tested on: CAKI-1 renal
# SNB-19 CNS = tested on: SNB-19 CNS
# A498 renal = tested on: A498 renal
# NCI-H460 lung = tested on: NCI-H460 lung
# MDA-N = tested on: MDA-N
# SK-MEL-2 melanoma = tested on: SK-MEL-2 melanoma
# MOLT-4 leukemia = tested on: MOLT-4 leukemia
# OVCAR-3 ovarian = tested on: OVCAR-3 ovarian
# M14 melanoma = tested on: M14 melanoma
# K-562 leukemia = tested on: K-562 leukemia
# HS 578T breast = tested on: HS 578T breast
# ACHN renal = tested on: ACHN renal
# HT29 colon = tested on: HT29 colon
# MALME-3M melanoma = tested on: MALME-3M melanoma
# SN12C renal = tested on: SN12C renal
# SR leukemia = tested on: SR leukemia
# SF-539 CNS = tested on: SF-539 CNS
SMILES,TGI (RPMI-8226 leukemia) [µM],TGI (EKVX NSCLC) [µM],TGI (CAKI-1 renal) [µM],TGI (SNB-19 CNS) [µM],TGI (A498 renal) [µM],TGI (NCI-H460 lung) [µM],TGI (MDA-N) [µM],TGI (SK-MEL-2 melanoma) [µM],TGI (MOLT-4 leukemia) [µM],TGI (OVCAR-3 ovarian) [µM],TGI (M14 melanoma) [µM],TGI (K-562 leukemia) [µM],TGI (HS 578T breast) [µM],TGI (ACHN renal) [µM],TGI (HT29 colon) [µM],TGI (MALME-3M melanoma) [µM],TGI (SN12C renal) [µM],TGI (SR leukemia) [µM],TGI (SF-539 CNS) [µM]
CC(O)CCNC(=O)Nc1c(C(F)(F)F)cc(-c2ccccc2)[nH]c1=O (stereo unspecified),> 100,> 100,> 100,> 100,> 100,> 100,> 100,> 100,> 100,> 100,> 100,> 100,> 100,> 100,> 100,> 100,> 100,,
Cc1ccc(S(=O)(=O)NC(=O)NC(C(=O)O)C(C)O)cc1 (stereo unspecified),> 100,,,> 100,,> 100,> 100,> 100,> 100,,> 100,> 100,> 100,> 100,> 100,> 100,> 100,> 100,> 100
Cc1cc(C)c(S(=O)(=O)N(CCCCCCN)OCCCN)c(C)c1,> 100,29.9,,38.2,,31.6,32.2,36,34.4,46,44.9,> 100,30.2,30.9,30,24,37.2,,34.2
CC(NC1=NCCO1)c1cccs1 (stereo unspecified),> 100,> 100,,55.9,> 100,> 100,,,> 100,,35.7,59.6,> 100,> 100,42.6,76.8,> 100,> 100,
O=[N+]([O-])c1cc2c(cc1O)[nH]c1cccc([N+](=O)[O-])c12,> 100,,> 100,> 100,,> 100,,> 100,> 100,> 100,> 100,> 100,,> 100,> 100,> 100,> 100,> 100,> 100
COC(=O)c1ccc(/C=C2\Cc3ccccc3C2=O)cc1,> 100,> 100,> 100,> 100,,> 100,> 100,,> 100,> 100,> 100,> 100,> 100,> 100,> 100,,> 100,> 100,> 100
COc1ccc(/C=N/NC(=O)c2ccccc2Nc2ccccc2C(=O)N/N=C/c2ccc(OC)cc2)cc1,> 100,> 100,> 100,> 100,> 100,> 100,> 100,> 100,> 100,> 100,> 100,> 100,,> 100,> 100,> 100,> 100,> 100,
CN(C(=O)[C@@H](NC(=O)OC(C)(C)C)c1ccccc1)[C@H]1CCCC[C@@H]1N1CCCC1,> 100,> 100,> 100,> 100,> 100,,,> 100,> 100,> 100,> 100,> 100,> 100,> 100,> 100,,> 100,> 100,> 100
CCCCCCCC/C=C\CCCCCCCC(=O)OC[C@]1(CO)CCC(=O)O1,,> 100,> 100,> 100,> 100,> 100,,> 100,> 100,> 100,> 100,> 100,> 100,> 100,> 100,> 100,> 100,> 100,
O=C1N(CN2CCOCC2)CN(CN2CCOCC2)C(=O)N1Cc1ccc(-c2ccc(CN3C(=O)N(CN4CCOCC4)CN(CN4CCOCC4)C3=O)cc2)cc1,,61.5,29.2,31.2,44.1,54.5,,> 51.8,> 100,30,21.3,69,> 100,99.3,> 100,34.6,,18.9,> 74.3
COC(=O)C(Cc1c[nH]c2ccccc12)NC(=O)C(Cc1c[nH]c2ccccc12)NC(=O)C(Cc1c[nH]c2ccccc12)NC(=O)OC(C)(C)C (stereo not drawn) (Boc-Trp-Trp-Trp-OMe; configuration not given here),58.6,> 100,,47,> 100,36,40.3,35.8,39.9,,> 100,> 100,48.4,32.5,35.9,> 100,39.4,,
CCNc1nc(N)c(C(=O)c2cccs2)s1,,62.8,59.9,> 100,82.6,> 100,> 100,45,60.7,> 100,> 100,> 100,> 100,> 100,72.4,> 100,> 100,,46.4
CCOC(=O)CCSS(=O)(=O)C(F)(F)F,> 100,> 100,> 100,> 100,> 100,> 100,> 100,> 100,,> 100,> 100,,,> 100,,,> 100,,
CCOc1ncn(-c2ccc(NC(=S)Nc3cnccn3)cc2)n1,,> 10,,> 10,,> 10,> 10,> 10,> 10,> 10,> 10,> 10,> 10,> 10,> 10,> 10,> 10,> 10,> 10
CCCC(=O)OCC1(CO)C/C(=C/CC(C(C)C)C(C)C)C(=O)O1 (stereo unspecified),,> 100,> 100,> 100,> 100,> 100,> 100,> 100,,> 100,,,> 100,> 100,> 100,> 100,> 100,,
COc1cc(/C=C2\N=C(c3ccccc3)N(c3nc4cc(C)c(C)cc4s3)C2=O)cc(OC)c1OC,> 100,70.7,> 100,> 100,,> 100,38.9,> 100,30.3,49.1,> 100,> 100,98,83.9,48.6,,99.1,53.1,51.4
COc1cc(CNc2nc3ccccc3n2Cc2ccccc2)cc(CN2CCOCC2)c1O,> 100,> 100,> 100,> 100,39.2,> 100,68.2,47.5,> 100,56.6,40.4,53.1,80.9,> 100,70.4,34,> 100,,34.5
CCN(CC)CCSc1n[nH]c(-c2c[nH]c3nc(C)ccc3c2=O)n1,> 100,> 100,> 100,> 100,> 100,> 100,> 100,> 100,> 100,> 100,> 100,> 100,> 100,> 100,> 100,> 100,> 100,,
O=C1CCc2nc3ncccc3cc2C1,> 100,> 100,> 100,> 100,> 100,> 100,> 100,> 100,> 100,> 100,> 100,97.7,,> 100,,> 100,> 100,,
Brc1cccc(Nc2ncnc3sc4c(c23)CCC(Nc2cccc(Br)c2)C4)c1 (stereo unspecified),,> 100,> 100,> 100,,> 100,> 100,> 100,> 100,> 100,> 100,> 100,> 100,> 100,> 100,> 100,> 100,,
OC1CSCCCSCCSCCCSC1,> 100,> 100,> 100,> 100,> 100,> 100,> 100,> 100,> 100,> 100,> 100,> 100,> 100,> 100,> 100,,> 100,,> 100
CC1(C)C(=O)N(O)C(C)(C)N1N=O,> 10,> 10,> 10,> 10,,> 10,,> 10,> 10,> 10,> 10,> 10,,> 10,> 10,> 10,> 10,> 10,
O=S(Nc1ccccc1)c1ccc(-c2ccccc2)cc1 (stereo unspecified),> 100,> 100,,> 100,,> 100,> 100,,> 100,> 100,,> 100,> 100,> 100,> 100,> 100,> 100,> 100,> 100
CC(=O)OCC1OC(O[C@@H]2C[C@H]3C(C)(C)[C@H](OC(C)=O)CC[C@]3(C)[C@H]3CC[C@]4(C)C(=CC[C@H]4[C@@H](C)C[C@@H](O)[C@H](O)C(C)(C)O)[C@@]32C)C(O)C(O)C1O (stereo partly specified),30.2,40.2,27.3,29.3,34,31.2,32.7,31.1,31.8,28.7,36.5,37.7,,30.4,32.5,31.9,31.7,31.8,29.9
CS(=O)(=O)N1CC(CCl)c2ccc(NCCN)cc21 (stereo unspecified),> 100,> 100,> 100,> 100,> 100,> 100,> 100,> 100,> 100,> 100,> 100,> 100,> 100,> 100,> 100,> 100,> 100,,> 100
CCc1cccc(CC)c1Nc1nc2c(s1)C(=O)c1ccccc1C2=O,> 100,36.1,30,31.9,,34.9,32.3,39.8,> 100,34,32.8,> 100,71.4,32,,31.5,47.9,89.5,49.1
COc1cc(C2=C(C)[C@@H]3CN(CC=C3c3ccc(Cl)cc3)C2)c(S(=O)(=O)O)cc1OC,> 100,> 100,> 100,> 100,,,> 100,> 100,> 100,> 100,> 100,> 100,> 100,> 100,> 100,> 100,> 100,> 100,
CC1=CSC(O)(c2ccc(Cl)cc2)c2noc(=O)n21 (stereo unspecified),> 100,> 100,> 100,> 100,> 100,> 100,> 100,> 100,> 100,> 100,> 100,> 100,,> 100,> 100,,> 100,> 100,> 100
